Reference: PubChem BioAssay (NCI)
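Five concentrations, 48 hours, 96-well plates. TGI: concentration producing complete growth inhibition.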

Legend:
Experiment in all cases: NCI-60 cell line screen, 48 h
[1] = tested on: HS 578T breast
[2] = tested on: MDA-MB-435
[3] = tested on: OVCAR-8 ovarian
[4] = tested on: MALME-3M melanoma
[5] = tested on: HL-60(TB) leukemia
[6] = tested on: OVCAR-5 ovarian
[7] = tested on: IGROV1 ovarian
[8] = tested on: SF-268 CNS
[9] = tested on: CAKI-1 renal
[10] = tested on: T-47D breast
[11] = tested on: SK-MEL-2 melanoma
[12] = tested on: NCI-H23 lung
[13] = tested on: COLO 205 colon
[14] = tested on: OVCAR-4 ovarian
[15] = tested on: UACC-62 melanoma
[16] = tested on: TK-10 renal
[17] = tested on: MDA-MB-231 breast
[18] = tested on: A549 NSCLC
[19] = tested on: UACC-257 melanoma
[20] = tested on: UO-31 renal

| SMILES | TGI [1] [µM] | TGI [2] [µM] | TGI [3] [µM] | TGI [4] [µM] | TGI [5] [µM] | TGI [6] [µM] | TGI [7] [µM] | TGI [8] [µM] | TGI [9] [µM] | TGI [10] [µM] | TGI [11] [µM] | TGI [12] [µM] | TGI [13] [µM] | TGI [14] [µM] | TGI [15] [µM] | TGI [16] [µM] | TGI [17] [µM] | TGI [18] [µM] | TGI [19] [µM] | TGI [20] [µM] |
| --- | --- | --- | --- | --- | --- | --- | --- | --- | --- | --- | --- | --- | --- | --- | --- | --- | --- | --- | --- | --- |
| O=c1[nH]c(=O)n(C2CC(O)C(CO)O2)cc1NN=NCCCc1ccccc1 (stereo not drawn) | > 100 | > 100 | > 100 | > 100 | > 100 | > 100 | > 100 | > 100 | > 100 | > 100 | > 100 | > 100 | > 100 | > 100 | > 100 | > 100 | > 100 | > 100 | > 100 |  |
| c1ccc(CN[C@]23C4C5CC6C7C5C2C7[C@@](NCc2ccccc2)(C64)N3Cc2ccccc2)cc1 (stereo partly drawn) | > 100 | > 100 | > 100 | > 100 | > 100 | > 100 | > 100 | > 100 | > 100 | > 100 | > 100 | > 100 | > 100 | > 100 | > 100 | > 100 | > 100 | > 100 | > 100 | > 100 |
| CCOC(=O)C[n+]1cccc(C2(c3cc4ccccc4[nH]3)OCCO2)c1 | > 100 | > 100 | > 100 | > 100 | > 100 | > 100 | > 100 | > 100 | > 100 | > 100 | > 100 | > 100 | > 100 | > 100 | > 100 | > 100 | > 100 | > 100 | > 100 | > 100 |
| CC(=O)OCc1cncn1S(=O)(=O)c1ccc(C)cc1 | > 100 | > 78.9 | > 100 | > 100 | 50.2 | > 100 | > 100 | > 100 | > 100 | > 100 | > 100 | > 100 | > 100 | > 100 | > 100 | > 100 | > 100 | > 100 | > 100 | > 100 |
| C=C1C(=O)O[C@H]2[C@H]3O[C@@H](C[C@@H]12)[C@@]1(C)CC[C@H](O1)[C@H](C)CCC[C@H]3C | 12.4 | 2.61 | 2.82 | 3.24 | 1.27 | 3.38 | 2.74 | 3.34 | 2.58 | 5.53 | 4.62 | 3.18 | 3.33 | 3.4 | 6.32 | 2.98 | 3.12 | 5.09 | 3.41 | 2.9 |
| CC(=O)OC(Cc1ccc2ccccc2n1)(C(F)(F)F)C(F)(F)F | 6.58 | 3.55 | 3.96 | 5.21 | 0.352 | 10.2 | 6.02 | 7.54 | 2.96 | 0.912 | 4.36 | 6.95 | 1.98 | 7.08 | 2.93 | 2.55 | 4.12 | 44.3 | 0.328 | 7.12 |
| COC12CCCN1c1ccn(Cc3ccccc3)c(=O)c1C2=O (stereo not drawn) | > 100 | > 100 | > 100 | > 100 | > 100 | > 100 | > 100 | > 100 | > 100 | > 100 | > 100 | > 100 | > 100 | > 100 | > 100 | > 100 | > 100 | > 100 | > 100 | > 100 |
| CC1=NN(C(=O)CC(=O)Nc2ccccc2Cl)C(=O)C1N=Nc1ccc(S(=O)(=O)c2ccc(N=NC3C(=O)N(C(=O)CC(=O)Nc4ccccc4Cl)N=C3C)cc2)cc1 (stereo not drawn) | > 100 | > 100 | > 100 | > 100 | > 100 | > 100 | > 100 | > 100 | > 100 | > 100 | > 100 | > 100 | > 100 | > 100 | > 100 | > 100 | > 100 | > 100 | > 100 | > 100 |
| C=CCc1cc(-c2cc(CC=C)c(O)c(CN(CC)CC)c2)cc(CN(CC)CC)c1O | > 100 | > 92.7 | > 100 | 32.8 | > 86.3 | 52.6 | > 100 | > 100 | > 100 | > 100 | 60.3 | > 100 | > 82.2 | > 100 | 48.5 | > 100 | > 87.7 | > 100 | 68.5 | 44.3 |
| COc1ccc(/C=C/C(=O)c2cc(C(C)(C)C)c(O)c(C(C)(C)C)c2)cc1OC | > 77.2 | 21.2 | > 100 | > 100 | 17.6 | > 85.8 | > 100 | > 67.7 | > 90 | 24.4 | 16.5 | > 68.9 | 31.9 | > 92.9 | 40.1 | 47.4 | 51.6 | > 100 | 23.3 | 57.9 |
| COc1cc2oc(=O)cc(C)c2cc1O | > 100 | > 100 | > 100 | > 100 | > 100 | > 100 | > 100 | > 100 | > 100 | > 100 | > 100 | > 100 | > 100 | > 100 |  | > 100 | > 100 | > 100 | > 100 | > 100 |
